Data as given in patent publication US5141865A, “Monoclonal antibodies which bind thromboxane A2 receptor antagonists and diagnostic methods based thereon” (priority 1989, dated 1992).

Test system: monoclonal antibody MCTX1
Assay: Competitive radioimmunoassay (RIA) with MCTX1 and radiolabel-1; standard curve and cross-reactivity
Format: binding, mouse
Conditions: for percent cross-reactivity with MCTX1: ED50 of cross-reactant relative to ED50 of Compound I x 100, standards and cross-reactants in PBS
Protocol: Sera from immunized mice and media collected from wells containing HAT selected hybridomas were tested for the presence of antibodies recognizing Compound I by RIA. Undiluted media (50 μl) was incubated overnight at 4° C. with PBS (50 μl), normal human sera (50 μl) and [^125 I]-iodohistamine - Compound I (radiolabel-1) in PBS (200 μl, 50,000 CPM). After incubation, 1.0 ml of PEG 8000 (Fisher Scientific, Fairlawn, N.J.) (25% wt/vol) was added as separant; samples were centrigued at room temperature at 2000×g for 10 to 15 minutes and the supernatant decanted. Radioactivity associated with the precipitate was then determined using an APEX automatic gamma counter (ICN Micromedic Systems). Satisfactory zero binding and sensitivity were obtained after an overnight incubation at 4° C.
In order to assay samples for thromboxane A2 receptor antagonist, the same procedure was used, except that 50 μl of sample was used in place of the 50 μl of PBS.
In this regard, for construction of the standard curve and determination of cross-reactivity, standards and cross-reactants were prepared in PBS. Three cross-reactants were examined: the dinor and tetranor, possible metabolites of Compound I, and a related compound, Compound II, which lacks most of the omega side chain (Table 2).
To further characterize the specific structural features (epitope) within Compound I that are recognized by MCTX1, various derivatives of Compound I were tested for their cross-reactivity. The percent cross-reactivity was determined by dividing the ED50 of Compound I into the ED50 of the cross-reactants and multiplying the result by 100. […] Two potential metabolites of Compound I, the dinor and tetranor derivatives, had cross-reactivities of 66% and 17.6%, respectively. Both of these compounds have shortened alpha-side chains and no modifications in their omega-side chain. The extent of cross-reactivityof both alpha-side chain metabolites became less as the alpha-side chain became more truncated. […]

Structure (SMILES)	recognition by MCTX1 (cross-reactivity test) (cross-reactant prepared in PBS)	percent cross-reactivity with MCTX1
COC(=O)CCC=CCC1C2CCC(O2)C1CN (stereo not drawn) [Compound II]	not recognized by MCTX1	–
CCCCCCC(=O)NCC(=O)NCC1C2CCC(O2)C1CC=CCC(=O)O (stereo not drawn) [dinor]	–	66%
CCCCCCC(=O)NCC(=O)NC[C@H]1[C@@H](CCC(=O)O)[C@@H]2CC[C@H]1O2 [tetranor]	–	17.6%
